# According to patent US10501518B2 (priority 2013, dated 2019):
# Like-named read-outs stand apart in the source and are kept apart here. Starred links: 1 amine or outer side, 2 acyl side, 3 side chain; linkers in the order of their positions; H or OH if unused. Non-standard residues stand in square brackets, D forms with d. Residues, ends and D or L forms follow the SMILES beside them. No end group written: not given here. *: point of attachment. NH(1S,2S-2-CONH2-cPent) = NC(=O)[C@H]1CCC[C@@H]1N*; β3hW = N[C@H](CC(=O)O)Cc1c[nH]c2ccccc12; X12 = O=C([C@H]1CCC[C@@H]1N[*:1])[*:2]; X13 = O=C([C@H]1CNC[C@@H]1N[*:1])[*:2]; β3hE = N[C@@H](CCC(=O)O)CC(=O)O; β3hF = N[C@H](CC(=O)O)Cc1ccccc1; β3hN = NC(=O)C[C@H](N)CC(=O)O; β3hK = NCCCC[C@H](N)CC(=O)O; β3hM = CSCC[C@H](N)CC(=O)O; β3hD = NC(CC(=O)O)CC(=O)O
# How the values were obtained:
# [1] = target: T1, RG form of rat PTHR-1 (Rattus norvegicus, UniProt P25961); test: Radio-ligand competition binding to RG form of rat PTHR-1; conditions: Table 5; rat PTHR-1; mean ± SEM; read-out: RG -log (IC50) (converted)
# T1 construct: expressed in transfected cells; host or cells: COS-7
# T1 sequence (P25961 27-591): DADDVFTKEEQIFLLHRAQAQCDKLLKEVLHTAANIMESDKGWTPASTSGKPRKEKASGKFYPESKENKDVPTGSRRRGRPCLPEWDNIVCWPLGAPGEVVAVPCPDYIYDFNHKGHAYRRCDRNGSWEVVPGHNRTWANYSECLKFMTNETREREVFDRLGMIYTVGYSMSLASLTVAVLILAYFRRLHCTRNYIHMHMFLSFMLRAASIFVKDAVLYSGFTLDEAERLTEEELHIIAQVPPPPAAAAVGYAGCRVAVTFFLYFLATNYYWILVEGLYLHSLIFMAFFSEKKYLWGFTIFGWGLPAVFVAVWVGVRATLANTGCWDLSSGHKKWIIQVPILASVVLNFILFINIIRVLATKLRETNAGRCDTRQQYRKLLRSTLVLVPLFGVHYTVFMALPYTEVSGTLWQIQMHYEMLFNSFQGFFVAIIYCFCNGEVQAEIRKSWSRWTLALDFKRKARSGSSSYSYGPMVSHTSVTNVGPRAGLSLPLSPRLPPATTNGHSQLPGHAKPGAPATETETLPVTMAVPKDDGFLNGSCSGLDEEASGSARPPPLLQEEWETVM
# Source text: (§1) Data are means (±SEM) of n≥4 experiments, each performed in duplicate.
# [2] = target: T2, WT rat PTHR-1 (Rattus norvegicus, UniProt P25961); test: cAMP GloSensor dose-response in GR-35 cells expressing rat PTHR-1; assay type: cell-based; conditions: Table 7; for Max: 12-16 minutes after ligand addition, mean ± SEM
# T2 construct: expressed in transfected cells
# T2 sequence (P25961 27-591): T1 sequence (P25961 27-591)
# [3] = target: T3, WT human PTHR-1 (Homo sapiens, UniProt Q03431); test: cAMP GloSensor dose-response in GP-2.3 cells expressing human PTHR-1; assay type: cell-based; conditions: for cAMP (hPTHR-1) Max: Table 1, luminescence counts per second relative to PTH(1-34); for cAMP (hPTHR-1) Max / Max: 12-16 minutes after ligand addition; for Max: GP-2.3 cells, mean ± SEM
# T3 construct: bioactivity of the resulting compound in full-length hPTHR-1 and a truncated version; expressed in transfected cells
# T3 sequence (Q03431 27-593): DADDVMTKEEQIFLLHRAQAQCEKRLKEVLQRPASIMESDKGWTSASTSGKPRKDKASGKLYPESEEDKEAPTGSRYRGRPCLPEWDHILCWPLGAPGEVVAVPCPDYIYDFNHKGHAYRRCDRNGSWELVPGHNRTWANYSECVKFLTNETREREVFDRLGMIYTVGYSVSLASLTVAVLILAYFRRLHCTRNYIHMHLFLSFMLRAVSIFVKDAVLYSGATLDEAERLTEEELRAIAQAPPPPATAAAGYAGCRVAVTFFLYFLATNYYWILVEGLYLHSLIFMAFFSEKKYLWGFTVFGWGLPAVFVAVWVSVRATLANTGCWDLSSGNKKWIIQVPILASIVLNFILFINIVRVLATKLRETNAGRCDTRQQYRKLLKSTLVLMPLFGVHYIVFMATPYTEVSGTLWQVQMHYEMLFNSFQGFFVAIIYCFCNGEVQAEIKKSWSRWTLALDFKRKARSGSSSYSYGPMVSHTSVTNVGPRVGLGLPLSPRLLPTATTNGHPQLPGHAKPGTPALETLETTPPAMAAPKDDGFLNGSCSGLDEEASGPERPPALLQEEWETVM
# Summary of the method: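 Confluent cells preloaded with 0.5 mM d-luciferin at room temperature until luminescence baseline stabilised (30 min), then given varying agonist concentrations. Luminescence time course recorded after α/β-peptide addition. Means ±SEM of n>4 experiments, each in duplicate.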
# [4] = target: T4, R^0 form of human PTHR-1 (Homo sapiens, UniProt Q03431); test: Radio-ligand competition binding to R^0 form of human PTHR-1 (COS-7 membranes, 125I-PTH(1-34) tracer, GTPγS)
# T4 construct: expressed in transfected cells; host or cells: COS-7
# T4 sequence (Q03431 27-593): T3 sequence (Q03431 27-593)
# Source text: as §1
# [5] = target: T5, RG form of human PTHR-1 (Homo sapiens, UniProt Q03431); test: Radio-ligand competition binding to RG form of human PTHR-1 (COS-7 membranes, 125I-M-PTH(1-15) tracer, high affinity Gαs mutant)
# T5 construct: expressed in transfected cells; host or cells: COS-7
# T5 sequence (Q03431 27-593): T3 sequence (Q03431 27-593)
# Source text: as §1
# [6] = target: T6, R^0 form of rat PTHR-1 (Rattus norvegicus, UniProt P25961); test: Radio-ligand competition binding to R^0 form of rat PTHR-1; conditions: Table 5; ratio of R^0 to RG IC50, rat PTHR-1
# T6 construct: expressed in transfected cells; host or cells: COS-7
# T6 sequence (P25961 27-591): T1 sequence (P25961 27-591)
# Source text: as §1
# [7] = Calcemic response in mice after subcutaneous injection; assay type: in vivo; conditions: 20 nmol/kg
# Experimental: Compound concentrations were determined by submitting plasma to a cAMP GloSensor assay, quantification of luminescence readout, and conversion to peptide concentration via standard curve. […] See also FIGS. 12A, 12B and 12C.
# Mice (C57BL/6, male, age 9-12 weeks) were treated in accordance with the ethical guidelines adopted by Massachusetts General Hospital. […] Blood was withdrawn just prior to injection (t=0) or at times thereafter. Tail vein blood was collected and immediately used for analysis. Blood Ca^2+ concentration was measured with a Chiron Diagnostics model 634 Ca^2+/pH analyzer.
# [8] = target: T7, PTHR (Homo sapiens, UniProt Q03431); test: cAMP induction potency, N-terminal modifications and cyclic constraints (Tables 9, 10, 13); assay type: cell-based; conditions: Table 9
# T7 construct: expressed in transfected cells
# T7 sequence (Q03431 27-593): T3 sequence (Q03431 27-593)
# Experimental: For cAMP dose-response assays, monolayers of confluent HEK 293 cells were pre-incubated with buffer containing d-luciferin (0.5 mM) in 96 well plates at room temperature until a stable baseline level of luminescence was established (30 min). Varying concentrations of agonist were then added, and the time course of luminescence response was recorded using a Perkin Elmer plate reader following α/β-peptide addition.
# [9] = target: T8, PTHR1 (Homo sapiens, UniProt Q03431); test: Inhibition of PTH-induced PTHR1 cAMP signaling by bPTH(7-34) analogs; conditions: Table 18; [Inhibitor] = 1 μM
# T8 sequence (Q03431 27-593): T3 sequence (Q03431 27-593)
molecule,measurement,setting,value
CC[C@H](C)[C@H](NC(=O)[C@H](CCC(=O)O)NC(=O)[C@H](CO)NC(=O)[C@@H](NC(=O)[C@@H](N)CO)C(C)C)C(=O)N[C@@H](CCC(N)=O)C(=O)N[C@@H](CC(C)C)C(=O)N[C@@H](CCSC)C(=O)N[C@@H](Cc1c[nH]cn1)C(=O)N[C@@H](CC(N)=O)C(=O)N[C@@H](CC(C)C)C(=O)NCC(=O)N[C@@H](CCCCN)C(=O)N[C@@H](Cc1c[nH]cn1)C(=O)N[C@@H](CC(C)C)C(=O)N[C@@H](CC(N)=O)C(=O)N[C@@H](CO)C(=O)N[C@@H](CCSC)CC(=O)N[C@@H](CCC(=O)O)C(=O)N[C@@H](CCCNC(=N)N)C(=O)N[C@H](C(=O)N[C@@H](CCC(=O)O)CC(=O)N[C@@H](Cc1c[nH]c2ccccc12)C(=O)N[C@@H](CC(C)C)C(=O)N[C@@H](CCCNC(=N)N)C(=O)N[C@@H](CCCCN)CC(=O)N[C@@H](CCCCN)C(=O)N[C@@H](CC(C)C)C(=O)N[C@@H](CCC(N)=O)C(=O)N[C@@H](CC(=O)O)CC(=O)N[C@H](C(=O)N[C@@H](Cc1c[nH]cn1)C(=O)N[C@@H](CC(N)=O)C(=O)N[C@H](CC(N)=O)Cc1ccccc1)C(C)C)C(C)C [D5],IC50,[1],1.74 nM
same,Max,[2]; GR-35 cells,43 ± 17 luminescence counts per second × 10−3
same,cAMP (hPTHR-1) Max,[3],1.03
same,Max,[3]; Table 6,223 ± 36 luminescence counts per second × 10^−3
CC[C@H](C)[C@H](NC(=O)[C@H](CCC(=O)O)NC(=O)[C@H](CO)NC(=O)[C@@H](NC(=O)[C@@H](N)CO)C(C)C)C(=O)N[C@@H](CCC(N)=O)C(=O)N[C@@H](CC(C)C)C(=O)N[C@@H](CCSC)C(=O)N[C@@H](Cc1c[nH]cn1)C(=O)N[C@@H](CC(N)=O)CC(=O)N[C@@H](CC(C)C)C(=O)NCC(=O)N[C@@H](CCCCN)C(=O)N[C@H](CC(=O)N[C@@H](CC(C)C)C(=O)N[C@@H](CC(N)=O)C(=O)N[C@@H](CO)C(=O)N[C@@H](CCSC)CC(=O)N[C@@H](CCC(=O)O)C(=O)N[C@@H](CCCNC(=N)N)C(=O)N[C@H](C(=O)N[C@@H](CCC(=O)O)CC(=O)N[C@@H](Cc1c[nH]c2ccccc12)C(=O)N[C@@H](CC(C)C)C(=O)N[C@@H](CCCNC(=N)N)C(=O)N[C@@H](CCCCN)CC(=O)N[C@@H](CCCCN)C(=O)N[C@@H](CC(C)C)C(=O)N[C@@H](CCC(N)=O)C(=O)N[C@@H](CC(=O)O)CC(=O)N[C@H](C(=O)N[C@@H](Cc1c[nH]cn1)C(=O)N[C@@H](CC(N)=O)C(=O)N[C@H](CC(N)=O)Cc1ccccc1)C(C)C)C(C)C)Cc1c[nH]c2ccccc12 [D7] (H-SVSEIQLMH[β3hN]LGK[β3hW]LNS[β3hM]ERV[β3hE]WLR[β3hK]KLQ[β3hD]VHN[β3hF]-NH2),IC50,[4],3.5 nM
same,R^0/RG,"[4]; Table 4, ratio of R^0 to RG IC50, human PTHR-1",15
same,IC50,[1],2.04 nM
same,Fold nM PTH(1-34),[2]; EC50 relative to PTH(1-34),3.89
same,Max,[2]; GR-35 cells,40 ± 18 luminescence counts per second × 10−3
same,EC50,"[2]; GR-35 cells, read-out: EC50",1.62 nM
same,EC50,[3],0.39 nM
same,cAMP (hPTHR-1) Max,[3],0.85
same,Fold nM PTH(1-34),"[3]; Table 6, EC50 relative to PTH(1-34)",2.26
same,Max,[3]; Table 6,184 ± 18 luminescence counts per second × 10^−3
same,IC50,[5],0.24 nM
same,IC50,"[5]; Table 4, human PTHR-1, mean ± SEM, read-out: RG -log (IC50) (converted)",0.234 nM
same,R^0/RG,[6],7
"CC[C@H](C)[C@H](NC(=O)[C@H](CCC(=O)O)NC(=O)[C@H](CO)NC(=O)[C@@H](NC(=O)[C@@H](N)CO)C(C)C)C(=O)N[C@@H](CCC(N)=O)C(=O)N[C@@H](CC(C)C)C(=O)N[C@@H](CCSC)C(=O)N[C@@H](Cc1c[nH]cn1)C(=O)N[C@@H](CC(N)=O)C(=O)N[C@@H](CC(C)C)C(=O)NCC(=O)N[C@@H](CCCCN)C(=O)N[C@H]1CCC[C@@H]1C(=O)N[C@@H](CC(C)C)C(=O)N[C@@H](CC(N)=O)C(=O)N[C@@H](CO)C(=O)N[C@H]1CCC[C@@H]1C(=O)N[C@@H](CCC(=O)O)C(=O)N[C@@H](CCCNC(=N)N)C(=O)N[C@H](C(=O)N[C@H]1CNC[C@@H]1C(=O)N[C@@H](Cc1c[nH]c2ccccc12)C(=O)N[C@@H](CC(C)C)C(=O)N[C@@H](CCCNC(=N)N)C(=O)N[C@H]1CNC[C@@H]1C(=O)N[C@@H](CCCCN)C(=O)N[C@@H](CC(C)C)C(=O)N[C@@H](CCC(N)=O)C(=O)N[C@H]1CCC[C@@H]1C(=O)N[C@H](C(=O)N[C@@H](Cc1c[nH]cn1)C(=O)N[C@@H](CC(N)=O)C(=O)N[C@H]1CCC[C@@H]1C(N)=O)C(C)C)C(C)C [FcycD6, SVSEIQLMHNLGKXLNSXERVZWLRZKLQXVHNX-NH2] (H-SVSEIQLMHNLGK[X12]LNS[X12]ERV[X13]WLR[X13]KLQ[X12]VHN-{NH(1S,2S-2-CONH2-cPent)}; N-terminus assumed)",calcemic response (blood Ca^2+ concentration),[7],very marked activity to increase calcium blood levels
same,Fold PTH,[8],3.2
same,EC50,"[8]; read-out: EC50, nM (cAMP induction potency)",0.26 ± 0.05 nM
"FMHNLWKHLSSMERVEWLRKKLQDVHNF-NH2 [bPTH(7-34)dTrp12, reference compound]",EC50(+)inhibitor/EC50(−)inhibitor,[9],60.12
FMHNLWKWLSSMERVEWLRKKLQDVHNF-NH2 [D6 bPTH(7-34) dTrp12],EC50(+)inhibitor/EC50(−)inhibitor,[9],16.49
"LMHNLGKHLNSMERVEWLRKKLQDVHNF-NH2 [hPTH(7-34), reference compound]",EC50(+)inhibitor/EC50(−)inhibitor,[9],1.60
XMHNLWKWLSSMERVEWLRKKLQDVHNF-NH2 [D6 bPTH(7-34) dTrp12 ACPC7],EC50(+)inhibitor/EC50(−)inhibitor,[9],4.38
XMHNLWKXLSSXERVZWLRZKLQXVHNX-NH2 [FCycD6 bPTH(7-34) dTrp12 ACPC7],EC50(+)inhibitor/EC50(−)inhibitor,[9],3.50
